The record followed here is patent EP4810052A2, “HCRHR2 SELECTIVE POLYPEPTIDES” (Gubra A/S, priority 2023, dated 2026).

Data set [1] is described as follows: PK in minipigs. The settings on record: male, Göttingen, minipig, in vivo; for half-life: read-out: T½ (converted); for bioavailability / Cmax / Tmax: sc; for Cmax / Tmax: 6.0 nmol/kg s.c. How it is done: Pharmacokinetics studies were determined in male Göttingen minipigs from Ellegaard Göttingen Minipigs A/S. Animals were acclimatised for at least 7 days before placed on study. The minipigs had prior to study been surgically implanted with central venous catheters inserted which were used for blood sampling. Animals were housed under a 12/12 h dark-light cycle with ad libitum access to domestic water and animals were fed a commercially standard maintenance diet twice daily.
Test compounds where administrated either as a cassette or as a single compound. Test compounds were administrated by a single intravenous injection or short infusion (5-10 min) through the implanted catheter or a single subcutaneously injection. The subcutaneously injection was given in the mid neck between ear and scapula with a stopper on the needle, allowing 0.5 cm of the needle to be inserted.Plasma concentration-time profiles employing 12-16 sampling points were obtained from each animal. As an example, blood samples were collected on the following times: 0 (predose), 0.17, 0.33, 0.5, 1, 2, 5, 6, 24, 48, 72, 92, 168, 240 and 336 hrs post administration. Approximately 2 mL blood was drawn from the central catheter from each animal at each sampling point. Blood samples were taken in K2 or K3 EDTA tubes. Blood was kept on ice for maximum 30 min before centrifugation (10 min, 4°C, 2000 x g). Approximately 200 µL plasma samples was transferred to a Micronic tube and stored at -20° or lower.
Pharmacokinetics parameters were calculated by non-compartmental analysis (NCA) of the individual plasma concentrations-time profile from the animals. The log-linear trapezoidal method was used for estimation of AUC and AUMC. The terminal T½ was determined as In(2)/λz where λz is the first order rate constant as determined by the terminal log-linear part of the curve.
Plasma concentrations were measured by LC-MSMS using electrospray ionization and multiple reaction monitoring. Calibration standards and quality control (QC) samples were prepared in specie match matrix. 15 µL calibration standards, QC and study samples were extracted by protein precipitation using 60 µL methanol followed by addition of 45 µL milliQ water. Samples were shaken (800 rpm) at room temperature for 5 min before centrifugation (2570×g, 40 min, 4°C) and the supernatant was transferred to a LoBind PCR plate. Samples were analysed on a Thermo Triscend UHPLC system coupled to a Sciex API 6500+ mass spectrometer. Samples were subject to online SPE clean-up on a HLB column (1×50 mm, Waters) before loaded onto a Aeris Peptide XB C18 column (3.6 µm, 100 Å, 2×50 mm, Phenomenex) analytical column. The mobile phases consisted of acetonitrile and milliQ H2O both containing 0.1% V/V formic acid. The flow rate was 0.60 mL/min and the column was kept at room temperature.

In data set [2] the target is T1, hCRHR2b (Homo sapiens, UniProt Q13324).
T1 construct: DYK (FLAG); host or cells: CHO-K1, transiently transfected
T1 sequence (Q13324 1-438 isoform Q13324-2): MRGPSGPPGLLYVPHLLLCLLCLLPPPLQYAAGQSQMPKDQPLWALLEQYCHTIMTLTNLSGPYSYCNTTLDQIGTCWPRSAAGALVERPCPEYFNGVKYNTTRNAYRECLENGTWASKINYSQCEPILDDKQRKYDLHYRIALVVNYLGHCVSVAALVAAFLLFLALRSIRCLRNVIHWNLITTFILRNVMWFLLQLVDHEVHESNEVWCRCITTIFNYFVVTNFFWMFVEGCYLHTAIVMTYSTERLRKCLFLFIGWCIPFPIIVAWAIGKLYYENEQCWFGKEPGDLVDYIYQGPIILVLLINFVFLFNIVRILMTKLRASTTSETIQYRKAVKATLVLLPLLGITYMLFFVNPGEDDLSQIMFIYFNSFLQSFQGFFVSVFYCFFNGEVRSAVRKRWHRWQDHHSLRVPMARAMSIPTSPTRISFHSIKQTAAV
Kind of data set: cAMP potency, transiently transfected CHO-K1 cells, hCRHR2b. The class given is cell-based. The settings on record: transiently transfected CHO-K1, average n=3; read-out: Transient cell system EC50 (nM) hCRHR 2b.

Data set [3] addresses T2, hCRHR1 (Homo sapiens, UniProt P34998).
T2 sequence (P34998 24-415): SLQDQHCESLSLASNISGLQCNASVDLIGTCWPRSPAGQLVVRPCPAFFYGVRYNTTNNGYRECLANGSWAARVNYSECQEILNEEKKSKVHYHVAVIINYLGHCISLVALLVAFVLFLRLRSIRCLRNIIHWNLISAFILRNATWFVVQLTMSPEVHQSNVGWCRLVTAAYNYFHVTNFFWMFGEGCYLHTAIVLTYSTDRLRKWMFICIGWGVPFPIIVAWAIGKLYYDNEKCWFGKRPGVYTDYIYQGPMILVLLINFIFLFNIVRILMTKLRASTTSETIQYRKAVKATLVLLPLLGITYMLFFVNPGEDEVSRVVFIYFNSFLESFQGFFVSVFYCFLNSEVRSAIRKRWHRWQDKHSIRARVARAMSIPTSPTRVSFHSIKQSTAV
The data set can be described thus: cAMP potency, transiently transfected CHO-K1 cells, hCRHR1. Details: DYK (FLAG); host or cells: CHO-K1, transiently transfected. The settings on record: transiently transfected CHO-K1, average n=3; read-out: Transient cell system EC50 (nM) hCR HR1. The class given is cell-based.

Like-named read-outs stand apart in the source and are kept apart here. Starred links: 1 amine or outer side, 2 acyl side, 3 side chain; linkers in the order of their positions; H or OH if unused. Non-standard residues stand in square brackets, D forms with d. Residues, ends and D or L forms follow the SMILES beside them. Groups on a side chain read outwards from the residue. *: point of attachment. C20 diacid = O=C(O)CCCCCCCCCCCCCCCCCCC(=O)*; γGlu = O=C(O)[C@H](CCC(=O)[*:2])N[*:1]; NMeI = CC[C@H](C)[C@H](NC)C(=O)O; Nle = CCCC[C@H](N)C(=O)O; AEEA = NCCOCCOCC(=O)O; Aib = CC(C)(N)C(=O)O

`CCCC[C@H](NC(=O)[C@@H](NC(=O)[C@H](CCC(=O)O)NC(=O)C(C)(C)NC(=O)[C@H](CC(N)=O)NC(=O)[C@@H](NC(=O)[C@H](CCCCNC(=O)COCCOCCNC(=O)COCCOCCNC(=O)CC[C@H](NC(=O)CC[C@H](NC(=O)CCCCCCCCCCCCCCCCCCC(=O)O)C(=O)O)C(=O)O)NC(=O)[C@H](C)NC(=O)[C@H](CCC(N)=O)NC(=O)[C@H](CCC(=O)O)NC(=O)[C@H](CCCNC(=N)N)NC(=O)[C@H](C)NC(=O)[C@H](C)NC(=O)[C@H](CCCNC(=N)N)NC(=O)[C@H](C)NC(=O)[C@H](CCCNC(=N)N)NC(=O)[C@H](C)NC(=O)[C@H](CCC(N)=O)NC(=O)[C@H](CO)NC(=O)[C@H](CC(C)C)NC(=O)[C@H](CC(C)C)NC(=O)[C@@H](NC(=O)[C@H](CCC(N)=O)NC(=O)[C@H](CC(C)C)NC(=O)[C@H](CC(C)C)NC(=O)CNC(=O)[C@@H](NC(=O)[C@@H]1CCCN1C(=O)[C@@H](NC(=O)[C@H](CC(=O)O)NC(=O)[C@H](CC(C)C)NC(=O)[C@H](CO)NC(=O)[C@H](CC(C)C)NC(=O)[C@@H](NC(=O)[C@@H](NC)[C@@H](C)CC)C(C)C)C(C)C)[C@@H](C)CC)[C@@H](C)CC)[C@@H](C)O)[C@@H](C)CC)C(=O)N[C@@H](C)C(=O)N[C@@H](CCC(=O)O)C(=O)N[C@H](C(N)=O)C(C)C` [SEQ ID NO: 215] (H-[NMeI]VLSLDVPIGLLQILLSQARARAAREQAK([AEEA-AEEA-γGlu-γGlu-C20 diacid])TN[Aib]EI[Nle]AEV-NH2): in data set [1] (iv, Pig, 4.2 nmol/kg i.v.), the clearance is 7.2 mL/day/kg and the half-life was 156 h. This molecule yielded a bioavailability in data set [1] of 68%. Moreover, in data set [1] (Pig), the maximum concentration (Cmax) was 38 nM and the Tmax amounted to 24 h. Besides, in data set [2], the concentration for a half-maximal effect (EC50) came out at 0.016 nM.
With `CC[C@H](C)[C@H](NC)C(=O)N[C@H](C(=O)N[C@@H](CC(C)C)C(=O)N[C@@H](CO)C(=O)N[C@@H](CC(C)C)C(=O)N[C@@H](CC(=O)O)C(=O)N[C@H](C(=O)N1CCC[C@H]1C(=O)N[C@H](C(=O)NCC(=O)N[C@@H](CC(C)C)C(=O)N[C@@H](CC(C)C)C(=O)N[C@@H](CCC(N)=O)C(=O)N[C@H](C(=O)N[C@@H](CC(C)C)C(=O)N[C@@H](CC(C)C)C(=O)N[C@@H](CCC(=O)O)C(=O)N[C@@H](CCC(N)=O)C(=O)N[C@@H](C)C(=O)N[C@@H](CCCNC(=N)N)C(=O)N[C@@H](C)C(=O)N[C@@H](CCCNC(=N)N)C(=O)N[C@@H](C)C(=O)N[C@@H](C)C(=O)N[C@@H](CCCNC(=N)N)C(=O)N[C@@H](CCC(=O)O)C(=O)N[C@@H](CCC(N)=O)C(=O)N[C@@H](C)C(=O)N[C@@H](CCCCNC(=O)COCCOCCNC(=O)COCCOCCNC(=O)CC[C@H](NC(=O)CC[C@H](NC(=O)CCCCCCCCCCCCCCCCCCC(=O)O)C(=O)O)C(=O)O)C(=O)N[C@H](C(=O)N[C@@H](CC(N)=O)C(=O)NC(C)(C)C(=O)N[C@@H](CCC(=O)O)C(=O)N[C@H](C(=O)N[C@@H](CC(C)C)C(=O)N[C@@H](C)C(=O)N[C@@H](CCC(=O)O)C(=O)N[C@H](C(N)=O)C(C)C)[C@@H](C)CC)[C@@H](C)O)[C@@H](C)CC)[C@@H](C)CC)C(C)C)C(C)C` [SEQ ID NO: 16] (H-[NMeI]VLSLDVPIGLLQILLEQARARAAREQAK([AEEA-AEEA-γGlu-γGlu-C20 diacid])TN[Aib]EILAEV-NH2), the half-life in data set [1] (iv, Pig, 4.6 nmol/kg i.v.) was 208 h. In data set [1], this molecule came in with a bioavailability of 66%. In data set [1] (Pig), the Cmax stood at 35 nM and the Tmax came out at 48 h. Besides, the EC50 in data set [2] was 0.012 nM. For the same molecule, the EC50 in data set [3] was more than 1000 nM.
Consider `CCCC[C@H](NC(=O)[C@@H](NC(=O)[C@H](CCC(=O)O)NC(=O)[C@H](C)NC(=O)[C@H](CC(N)=O)NC(=O)C(C)(C)NC(=O)[C@H](CCCCNC(=O)COCCOCCNC(=O)COCCOCCNC(=O)CC[C@H](NC(=O)CC[C@H](NC(=O)CCCCCCCCCCCCCCCCCCC(=O)O)C(=O)O)C(=O)O)NC(=O)[C@H](C)NC(=O)[C@H](CCC(N)=O)NC(=O)[C@H](CCC(=O)O)NC(=O)[C@H](CCCNC(=N)N)NC(=O)[C@H](C)NC(=O)[C@H](C)NC(=O)[C@H](CCCNC(=N)N)NC(=O)[C@H](C)NC(=O)[C@H](CCCNC(=N)N)NC(=O)[C@H](C)NC(=O)[C@H](CCC(N)=O)NC(=O)[C@H](CO)NC(=O)[C@H](CC(C)C)NC(=O)[C@H](CC(C)C)NC(=O)[C@@H](NC(=O)[C@H](CCC(N)=O)NC(=O)[C@H](CC(C)C)NC(=O)[C@H](CC(C)C)NC(=O)CNC(=O)[C@@H](NC(=O)[C@@H]1CCCN1C(=O)[C@@H](NC(=O)[C@H](CC(=O)O)NC(=O)[C@H](CC(C)C)NC(=O)[C@H](CO)NC(=O)[C@H](CC(C)C)NC(=O)[C@@H](NC(=O)[C@@H]1CCCN1)C(C)C)C(C)C)[C@@H](C)CC)[C@@H](C)CC)[C@@H](C)CC)C(=O)N[C@@H](C)C(=O)N[C@@H](CCC(=O)O)C(=O)N[C@H](C(N)=O)C(C)C` [SEQ ID NO: 238] (H-PVLSLDVPIGLLQILLSQARARAAREQAK([AEEA-AEEA-γGlu-γGlu-C20 diacid])[Aib]NAEI[Nle]AEV-NH2), for which the half-life in data set [1] (iv, Pig, 5.8 nmol/kg i.v.) is 212 h. In data set [1], the bioavailability was 86%. In addition, in data set [1] (Pig), the Cmax was 44 nM and the time of peak concentration (Tmax) was 48 h. Also, in data set [2], the EC50 is 0.016 nM. Moreover, the EC50 in data set [3] is more than 5000 nM.

The clearance is a measure of how efficiently the substance is removed, as volume per time. The bioavailability is the share of a dose that reaches the circulation, judged against a reference dose that is usually intravenous. Low values mean little systemic uptake, high ones much systemic uptake. For orientation: Cmax means the highest concentration seen after dosing. By Tmax is commonly meant the time from dosing to the highest level. In general, EC50 refers to the concentration needed to bring the measured effect to its halfway point.
